Structures can show the parent of a compound that is named as a salt.
Legend:
[1] = system: indomethacin-induced gastric damage in rats; experiment: Gastric damage inhibitory activity against indomethacin-induced gastric damage in rats; format: in vivo, Sprague Dawley (SD) rats; conditions: 2.0 mg/kg oral, 1 hour before indomethacin 80 mg/kg
Experimental: The inhibitory activity against the gastric damage of the compounds prepared in Examples 2 and 8 was measured using indomethacin model (Chiou., Et al., 2005, gastroenterology, 128, p 63-73). Male Sprague Dawley (SD) rats (body weight 180-220 g) was divided into 5 groups (n=10) and fasted for 24 hours with free access to water. Control group was orally administered with 5 mL/kg of 0.5% methyl cellulose (MC) aqueous solution, and the other groups were orally administered with test compounds suspended in 0.5% methyl cellulose (MC) aqueous solution at a dose of 2.0 mg/kg/5 ml. For comparison, the compound of Example 134 (Comparative Example 1) and the compound of Example 165 (Comparative Example 2) in International Patent Publication No. WO 2006/036024 were orally administered at a dose of 2.0 mg/kg/5 ml by suspending 0.5% methylcellulose (MC) aqueous solution, respectively. […] The incised stomach was placed on a fixture, fixed by a fixing pin while spreading out using a forcep and then the gastric damage area was measured. % Inhibitory activity of test compounds was calculated according to the following Equation 2, and the results are shown in Table 3. % Inhibitory activity of test compound=[1−(gastric damage area % of the group treated with test compounds)/(gastric damage area % of control group)]×100 [Equation 2]

M2 = target: T1, M2 (Homo sapiens, UniProt P08172); experiment: GPCR Calcium Flux assay (FLIPR tetra, Eurofins), M2; format: cell-based; conditions: single concentration of 10 uM; read-out: inhibition rate (%) M2
T1 sequence (P08172 1-466): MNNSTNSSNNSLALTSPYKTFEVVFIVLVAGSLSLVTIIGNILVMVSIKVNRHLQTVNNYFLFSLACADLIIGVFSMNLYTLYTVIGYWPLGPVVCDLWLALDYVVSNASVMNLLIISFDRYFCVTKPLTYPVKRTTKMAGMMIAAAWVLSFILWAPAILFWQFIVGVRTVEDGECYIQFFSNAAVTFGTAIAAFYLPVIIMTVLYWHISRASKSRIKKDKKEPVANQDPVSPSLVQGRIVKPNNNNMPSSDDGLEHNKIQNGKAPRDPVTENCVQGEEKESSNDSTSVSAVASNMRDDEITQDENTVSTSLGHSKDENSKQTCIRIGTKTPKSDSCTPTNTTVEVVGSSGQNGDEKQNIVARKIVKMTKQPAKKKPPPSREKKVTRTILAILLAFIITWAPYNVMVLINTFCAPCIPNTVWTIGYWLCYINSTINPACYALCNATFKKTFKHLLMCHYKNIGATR
Experimental: In order to confirm whether the compounds prepared in the above Examples act as an agonist or antagonist against GPCR Target, Calcium Flux assay was performed in an assay plate in which the compounds prepared in the Examples, vehicle controls, and reference compounds were added, using a Fluorometric imaging plate reader (FLIPR tetra) equipment.
Calcium Flux assay was evaluated by entrusting the GPCR profiler assay in Safety panel assays with Eurofins. By using the Fluo-8AM calcium dye, excitation was measured at a wavelength in the range of 470 to 495 nm and Emission was measured at a wavelength in the range of 515-575 nm. GPCR Assay Buffer for Calcium Flux assay was prepared by adding 20 mM of HEPES and 2.5 mM of Probenecid to Hanks Balanced Salt Solution (HBSS) to have pH 7.4. The Compounds of Examples for evaluation of the GPCR were diluted with DMSO at a concentration of 10 mM to make a stock and then prepared by diluting in the GPCR Assay Buffer at the concentration equivalent to three times the final concentration. First, for the evaluation of GPCRs, the inhibitory activity of the compounds of the Examples was evaluated at a single concentration of 10 uM, and then the respective selected targets were four fold-diluted from 10 uM to the low side to calculate 50% inhibitory concentration (IC50), prepared at the total 8 concentrations of 10, 2.5, 0.62, 0.15, 0.04, 0.01, 0.0024, 0.0006 uM, and Calcium Flux assay for GPCR was conducted. In order to evaluate the agonist and antagonist, % inhibition rate against GPCR activity before and after treatment of the compounds and the inhibitory activity of the compounds of the Examples were determined.
As a result, when the efficacy of […] and acetylcholine of the compounds prepared in the Examples was 100%, the inhibition rate (%) at a single concentration of 10 uM was evaluated and shown in Table 8.

For `CNCc1cn(S(=O)(=O)c2cccc(C(F)(F)F)c2)c(-c2ccccc2F)c1OC` [Example 2, hydrochloride], the “% inhibitory activity (gastric damage area)” value [1] was 91.8% and the inhibition at 10 µM (M2) was -4.7%.

From US10100010B1, “4-methoxy pyrrole derivatives or salts thereof and pharmaceutical composition comprising the same” (Daewoong Pharmaceutical Co., Ltd., priority 2015, dated 2018)
